# Entries after “also recorded” stand apart in the source; their conditions may differ.
# Columns and labels:
# [1] = tested on: human peripheral blood mononuclear cells (PBMCs); assay: RNA sequencing (RNA-Seq) of NECA-treated PBMCs; format: cell-based
# Method: RNA purified from normal, healthy human peripheral blood mononuclear cells (PBMCs) treated with 5′-N-ethylcarboxamidoadenosine (NECA) and activated with anti-CD3/CD28 antibody were analyzed by NanoString hybridization-based quantification (NanoString Technologies, Inc.). […] Each dot represents the expression level of a specific gene. Dot shade represents the concentration of NECA used and/or different PBMC donors. […] Data were confirmed by RNA sequencing (RNA-Seq).
# [2] = tested on: PBMCs; assay: CXCL5 protein ELISA in culture supernatants of PBMCs treated with NECA +/- CPI-444; format: cell-based, human
# Method: Expression of CXCL5 was determined by ELISA 2 days after activation.
# FIGS. 2B and 2C show the response of PBMCs from two different donors to NECA+/−CPI-444 treatment. DMSO was used as vehicle control. […] This control helps establish that the induction of CXCL5 is specific to signaling through adenosine receptors.
# NECA activation of CXCL5 protein expression was evaluated. PBMCs were harvested from two different human donors. […] CPI-444 (Corvus Pharmaceuticals) is an antagonist of the adenosine A2A receptor. CXCL5 protein in the culture supernatants was evaluated by ELISA two days after activation. CXCL5 expression is activated by NECA. […] This establishes that the induction of CXCL5 is specific to signaling through adenosine receptors.
# [3] = tested on: human peripheral blood mononuclear cells (PBMCs); assay: NanoString quantification of mRNA in NECA-treated, anti-CD3/CD28-activated PBMCs; format: cell-based; conditions: 0.1 μM, 1 μM, and/or 10 μM NECA vs vehicle-treated control
# Method: RNA purified from normal, healthy human peripheral blood mononuclear cells (PBMCs) treated with 5′-N-ethylcarboxamidoadenosine (NECA) and activated with anti-CD3/CD28 antibody were analyzed by NanoString hybridization-based quantification (NanoString Technologies, Inc.). […] Each dot represents the expression level of a specific gene. Dot shade represents the concentration of NECA used and/or different PBMC donors.
# [4] = tested on: advanced cancers; assay: Ongoing phase 1/1b trial in patients with advanced cancers; format: in vivo, human; conditions: as a monotherapy and in combination with atezolizumab
# Text: “Adenosine receptor antagonist” refers to a molecule that inhibits activity of adenosine receptors (e.g. A2A or A2B receptors), typically through direct action. Adenosine receptors antagonists can be small or large molecule antagonists. In embodiments, CPI-444 is an example A2A receptor antagonist. […] CPI-444 is described, for example, in PCT Patent Publication No. WO 2017/112917; each of which is incorporated herein by reference in its entirety.
# [5] = tested on: A2AR; assay: In vitro A2AR stimulation gene signature +/- CPI-444 (transcript and protein); format: cell-based, human; conditions: at the transcript and protein level
# Method: RNA purified from normal, healthy human peripheral blood mononuclear cells (PBMCs) treated with 5′-N-ethylcarboxamidoadenosine (NECA) and activated with anti-CD3/CD28 antibody were analyzed by NanoString hybridization-based quantification (NanoString Technologies, Inc.). […] Each dot represents the expression level of a specific gene. Dot shade represents the concentration of NECA used and/or different PBMC donors. […] Increases in monocyte/macrophage inflammatory mediators such as IL-1b and CCL2, 3, 7, 8, 20 were also observed, as were increases in SERPINB2, S100A8, PTGS2, THBS1. Expression of CXCL10 and GZMB were decreased, consistent with a suppressed IFNg response. […] A2AR agonists induce a specific gene signature (increase in a certain subset of genes and/or decrease in a second subset of genes) dominated by immunosuppressive mediators of MDSC and monocyte/macrophage biology. Inhibition of these genes by CPI-444 are observed. These gene signatures may be used as biomarkers for patient selection.
structure (smiles),measurement,setting,value
"CCNC(=O)[C@H]1O[C@@H](n2cnc3c(N)ncnc32)[C@H](O)[C@@H]1O [NECA, 5′-N-ethylcarboxamidoadenosine]",logFC CCL24,[1]; Control (DMSO) vs 0.1 μm NECA,−1.068
same,logFC CD93,[1]; Control (DMSO) vs 0.1 μm NECA,0.9975
same,logFC CSF3,[1]; Control (DMSO) vs 0.1 μm NECA,1.603
same,logFC CXCL2,[1]; Control (DMSO) vs 0.1 μm NECA,1.452
same,logFC CXCL3,[1]; Control (DMSO) vs 0.1 μm NECA,1.694
same,logFC CXCL5,[1]; Control (DMSO) vs 0.1 μm NECA,2.388
same,logFC EHF,[1]; Control (DMSO) vs 0.1 μm NECA,−0.2753
same,logFC EML6,[1]; Control (DMSO) vs 0.1 μm NECA,0.2117
same,logFC EPB41L3,[1]; Control (DMSO) vs 0.1 μm NECA,1.183
same,logFC FUT7,[1]; Control (DMSO) vs 0.1 μm NECA,−0.2135
same,logFC HAS1,[1]; Control (DMSO) vs 0.1 μm NECA,2.059
same,logFC IL23A,[1]; Control (DMSO) vs 0.1 μm NECA,0.7971
same,logFC INHBA,[1]; Control (DMSO) vs 0.1 μm NECA,0.5196
same,logFC KLC4,[1]; Control (DMSO) vs 0.1 μm NECA,0.216
same,logFC LAYN,[1]; Control (DMSO) vs 0.1 μm NECA,0.4228
same,logFC MRPL11,[1]; Control (DMSO) vs 0.1 μm NECA,−0.19
same,logFC MS4A7,[1]; Control (DMSO) vs 0.1 μm NECA,0.9319
same,logFC NPR1,[1]; Control (DMSO) vs 0.1 μm NECA,0.7892
same,logFC OST4,[1]; Control (DMSO) vs 0.1 μm NECA,0.2352
same,logFC PADI2,[1]; Control (DMSO) vs 0.1 μm NECA,0.4802
same,logFC PTGS2,[1]; Control (DMSO) vs 0.1 μm NECA,1.184
same,logFC SLC7A7,[1]; Control (DMSO) vs 0.1 μm NECA,0.5935
same,logFC SPON1,[1]; Control (DMSO) vs 0.1 μm NECA,0.3611
same,logFC ST6GALNAC2,[1]; Control (DMSO) vs 0.1 μm NECA,0.5342
same,logFC SYTL3,[1]; Control (DMSO) vs 0.1 μm NECA,0.2894
same,logFC WDR83OS,[1]; Control (DMSO) vs 0.1 μm NECA,−0.2872
same,logFC ZBTB18,[1]; Control (DMSO) vs 0.1 μm NECA,0.2431
same,logFC CCDC60,[1]; Control (DMSO) vs 1 μm NECA,0.07658
same,logFC CD93,[1]; Control (DMSO) vs 1 μm NECA,1.454
same,logFC CSF3,[1]; Control (DMSO) vs 1 μm NECA,2.802
same,logFC CXCL2,[1]; Control (DMSO) vs 1 μm NECA,2.361
same,logFC CXCL3,[1]; Control (DMSO) vs 1 μm NECA,2.573
same,logFC CXCL5,[1]; Control (DMSO) vs 1 μm NECA,3.451
same,logFC EHF,[1]; Control (DMSO) vs 1 μm NECA,−0.2522
same,logFC EMR3,[1]; Control (DMSO) vs 1 μm NECA,1.364
same,logFC EPB41L3,[1]; Control (DMSO) vs 1 μm NECA,1.854
same,logFC EREG,[1]; Control (DMSO) vs 1 μm NECA,1.89
same,logFC FUT7,[1]; Control (DMSO) vs 1 μm NECA,−0.4158
same,logFC GPR157,[1]; Control (DMSO) vs 1 μm NECA,0.9283
same,logFC HAS1,[1]; Control (DMSO) vs 1 μm NECA,3.238
same,logFC IL23A,[1]; Control (DMSO) vs 1 μm NECA,1.363
same,logFC IL24,[1]; Control (DMSO) vs 1 μm NECA,2.876
same,logFC INHBA,[1]; Control (DMSO) vs 1 μm NECA,0.9638
same,logFC LAYN,[1]; Control (DMSO) vs 1 μm NECA,0.5277
same,logFC MS4A7,[1]; Control (DMSO) vs 1 μm NECA,1.535
same,logFC OST4,[1]; Control (DMSO) vs 1 μm NECA,−0.1747
same,logFC PADI2,[1]; Control (DMSO) vs 1 μm NECA,0.7173
same,logFC PID1,[1]; Control (DMSO) vs 1 μm NECA,1.729
same,logFC PTGS2,[1]; Control (DMSO) vs 1 μm NECA,2.23
same,logFC SLC7A7,[1]; Control (DMSO) vs 1 μm NECA,0.9514
same,logFC SPON1,[1]; Control (DMSO) vs 1 μm NECA,0.5667
same,logFC ST6GALNAC2,[1]; Control (DMSO) vs 1 μm NECA,0.8306
same,logFC TGIF1,[1]; Control (DMSO) vs 1 μm NECA,0.4769
same,logFC ZBTB18,[1]; Control (DMSO) vs 1 μm NECA,0.3385
same,logFC CCNE1,[1]; Control (DMSO) vs 10 μm NECA,−0.4518
same,logFC CD93,[1]; Control (DMSO) vs 10 μm NECA,1.895
same,logFC CD300E,[1]; Control (DMSO) vs 10 μm NECA,1.71
same,logFC CSF3,[1]; Control (DMSO) vs 10 μm NECA,3.508
same,logFC CXCL2,[1]; Control (DMSO) vs 10 μm NECA,3.011
same,logFC CXCL3,[1]; Control (DMSO) vs 10 μm NECA,3.106
same,logFC CXCL5,[1]; Control (DMSO) vs 10 μm NECA,3.354
same,logFC DENA5,[1]; Control (DMSO) vs 10 μm NECA,0.6559
same,logFC ECEL1,[1]; Control (DMSO) vs 10 μm NECA,0.6918
same,logFC EPB41L3,[1]; Control (DMSO) vs 10 μm NECA,2
same,logFC GALM,[1]; Control (DMSO) vs 10 μm NECA,−0.3189
same,logFC GBP6,[1]; Control (DMSO) vs 10 μm NECA,−0.8039
same,logFC GPR157,[1]; Control (DMSO) vs 10 μm NECA,1.139
same,logFC HAS1,[1]; Control (DMSO) vs 10 μm NECA,3.807
same,logFC IL5,[1]; Control (DMSO) vs 10 μm NECA,−0.6885
same,logFC IL23A,[1]; Control (DMSO) vs 10 μm NECA,1.332
same,logFC INHBA,[1]; Control (DMSO) vs 10 μm NECA,1.192
same,logFC LAP3,[1]; Control (DMSO) vs 10 μm NECA,−0.4286
same,logFC LOC100505585,[1]; Control (DMSO) vs 10 μm NECA,0.6639
same,logFC NID1,[1]; Control (DMSO) vs 10 μm NECA,1.087
same,logFC PADI2,[1]; Control (DMSO) vs 10 μm NECA,0.9386
same,logFC PID1,[1]; Control (DMSO) vs 10 μm NECA,2.124
same,logFC PTGS2,[1]; Control (DMSO) vs 10 μm NECA,2.349
same,logFC RHCG,[1]; Control (DMSO) vs 10 μm NECA,0.5767
same,logFC SLC7A7,[1]; Control (DMSO) vs 10 μm NECA,0.9134
same,logFC SPON1,[1]; Control (DMSO) vs 10 μm NECA,0.568
same,logFC ST6GALNAC2,[1]; Control (DMSO) vs 10 μm NECA,0.876
same,CXCL5 protein in the culture supernatants (ELISA),"[2]; PBMCs from two human donors, anti-CD3/CD28 activated, two days after activation, vs DMSO",activated; also recorded: dose-dependent increase in CXCL5
same,logFC CD14,[3],0.4485
same,logFC CD86,[3],0.3148
same,logFC CLEC5A,[3],0.3833
same,logFC CXCL1,[3],0.6909
same,logFC CXCL2,[3],1.093
same,logFC CXCL3,[3],1.101
same,logFC CXCL5,[3],1.338
same,logFC CXCL6,[3],0.6535
same,logFC IL1A,[3],0.6367
same,logFC IL1B,[3],0.6345
same,logFC IL6,[3],0.7014
same,logFC IL8,[3],0.6411
same,logFC IL23A,[3],0.4628
same,logFC IL24,[3],0.5768
same,logFC PLAUR,[3],0.5031
same,logFC PPBP,[3],0.683
same,logFC PTGS2,[3],0.6892
same,logFC SLC11A1,[3],0.7022
same,logFC TBX21,[3],−0.1238
same,logFC THBS1,[3],0.8703
"Cc1ccc(-c2nc(N)nc3c2nnn3Cc2cccc(CO[C@H]3CCOC3)n2)o1 [CPI-444, (S)-7-(5-methylfuran-2-yl)-3-((6-(((tetrahydrofuran-3-yl)oxy)methyl)pyridin-2-yl)methyl)-3H-[1,2,3]triazolo[4,5-d]pyrimidin-5-amine]",Blocking of NECA-induced CXCL5 protein expression,"[2]; PBMCs treated with NECA, followed by CPI-444, then anti-CD3/CD28, ELISA two days after activation",can be blocked
same,anti-tumor activity,[4],demonstrated anti-tumor activity
same,Inhibition of A2AR-stimulation-induced gene expression changes,[5],inhibited these changes
